Experimental findings from the NIST ThermoML archive (doi:10.1016/j.tca.2006.02.028) are described below.

The nature of this series: excess molar enthalpy (molar enthalpy of mixing); xn = mol fraction of the nth substance listed. The note with it: 298.15 K, 101 kPa, Liquid, Titration calorimetry.

± gives the expanded uncertainty stated by the source.

Turning to `CO` [methanol] + O, the excess molar enthalpy is -0.326 ± 0.004 kJ/mol (x1 = 0.05); -0.55 ± 0.007 kJ/mol (x1 = 0.1); -0.714 ± 0.008 kJ/mol (x1 = 0.15); -0.806 ± 0.009 kJ/mol (x1 = 0.2); -0.85 ± 0.01 kJ/mol (x1 = 0.3); -0.841 ± 0.009 kJ/mol (x1 = 0.4). The excess molar enthalpy (x1 = 0.5) was -0.777 ± 0.009 kJ/mol; the excess molar enthalpy (x1 = 0.6) was -0.68 ± 0.008 kJ/mol; the excess molar enthalpy (x1 = 0.7) was -0.583 ± 0.007 kJ/mol; the excess molar enthalpy (x1 = 0.8) was -0.412 ± 0.005 kJ/mol; the excess molar enthalpy (x1 = 0.9) was -0.241 ± 0.003 kJ/mol; the excess molar enthalpy (x1 = 1) came to 0 ± 0.001 kJ/mol.

For `O` [water] + CO, for the setting “x2 = 0”, the excess molar enthalpy is 0 ± 0.001 kJ/mol.
